In patent US20080213415A1, “Treatment of Glaucoma and Diabetic Retinopathy with Morinda Citrifolia Enhanced Formulations” (priority 2007, published 2008):
Like-named read-outs stand apart in the source and are kept apart here.

Key:
[1] = target: T1, Fatty acid amide hydrolase (FAAH) (Rattus norvegicus, UniProt P97612); experiment: Fatty acid amide hydrolase (FAAH) inhibition, quantitation of labelled ethanolamine; format: biochemical, Wistar Rat; conditions: reference compound, concurrent
T1 sequence (P97612 1-579): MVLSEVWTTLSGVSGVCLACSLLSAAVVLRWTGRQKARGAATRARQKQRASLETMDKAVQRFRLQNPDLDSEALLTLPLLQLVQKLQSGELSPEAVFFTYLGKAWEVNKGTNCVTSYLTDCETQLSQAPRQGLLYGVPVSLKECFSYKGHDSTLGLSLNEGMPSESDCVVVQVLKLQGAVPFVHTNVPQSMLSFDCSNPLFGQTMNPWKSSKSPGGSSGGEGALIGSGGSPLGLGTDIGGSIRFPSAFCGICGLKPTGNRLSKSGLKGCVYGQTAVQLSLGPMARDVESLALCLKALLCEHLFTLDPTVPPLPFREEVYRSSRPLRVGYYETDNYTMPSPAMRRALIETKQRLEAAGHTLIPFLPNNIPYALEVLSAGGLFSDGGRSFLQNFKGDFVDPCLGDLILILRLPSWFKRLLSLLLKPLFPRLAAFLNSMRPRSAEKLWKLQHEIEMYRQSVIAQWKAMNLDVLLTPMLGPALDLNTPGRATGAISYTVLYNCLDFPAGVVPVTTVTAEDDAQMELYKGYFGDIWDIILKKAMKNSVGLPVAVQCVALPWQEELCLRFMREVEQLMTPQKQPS

[2] = target: T1, Fatty acid amide hydrolase (FAAH); conditions: reference compound, historical value; cited from earlier work

- IC50 ([1]; batch 144029): 23.5 nM
- IC50 ([1]; batch 144988): 35.5 nM
Structure (SMILES): CCCCCCCC/C=C\CCCCCCCC(=O)C(F)(F)F [Oleyl Trifluormethyl Ketone]
- IC50 [2]: 29 nM
